Data: patent publication US20130071854A1, “METHODS FOR THE IDENTIFICATION AND CHARACTERIZATION OF HDAC INTERACTING COMPOUNDS” (priority 2009, published 2013)
Like-named read-outs stand apart in the source and are kept apart here.

How the values were obtained:
[1] = biological target: T1, non-HDAC targets (e.g. BZW2, ISOC2, aldehyde dehydrogenases) (Homo sapiens, UniProt Q08209); assay: Chemoproteomic binding profiling, K562 cell extract, SAHA/ITF2357 probe matrix (Kd app); details: protein PPP3CA; selected HDACi off-targets
T1 construct: Kd^app PPP3CA; other: protein PPP3CA; selected HDACi off-targets

[2] = biological target: T2, non-HDAC targets (e.g. BZW2, ISOC2, aldehyde dehydrogenases) (Homo sapiens, UniProt Q9Y6E2); assay: as above; details: protein BZW2; selected HDACi off-targets
T2 construct: endogenous in cells; host or cells: K562 whole cell extract
T2 sequence (Q9Y6E2 1-419): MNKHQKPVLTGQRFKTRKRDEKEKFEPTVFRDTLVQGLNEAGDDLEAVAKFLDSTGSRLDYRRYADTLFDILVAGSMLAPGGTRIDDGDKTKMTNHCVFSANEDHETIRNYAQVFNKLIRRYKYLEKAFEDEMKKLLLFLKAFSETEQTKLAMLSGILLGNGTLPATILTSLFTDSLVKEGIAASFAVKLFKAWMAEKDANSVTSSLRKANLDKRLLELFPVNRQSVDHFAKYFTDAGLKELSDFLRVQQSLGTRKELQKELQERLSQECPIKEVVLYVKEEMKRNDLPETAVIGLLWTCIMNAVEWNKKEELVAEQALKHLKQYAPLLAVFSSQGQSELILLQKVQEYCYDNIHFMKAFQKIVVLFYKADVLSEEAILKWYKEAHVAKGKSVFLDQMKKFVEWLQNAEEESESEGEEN

[3] = biological target: T3, non-HDAC targets (e.g. BZW2, ISOC2, aldehyde dehydrogenases) (Homo sapiens, UniProt Q96AB3); assay: as above; details: protein ISOC2; selected HDACi off-targets
T3 construct: endogenous in cells; host or cells: K562 whole cell extract
T3 sequence (Q96AB3 1-205): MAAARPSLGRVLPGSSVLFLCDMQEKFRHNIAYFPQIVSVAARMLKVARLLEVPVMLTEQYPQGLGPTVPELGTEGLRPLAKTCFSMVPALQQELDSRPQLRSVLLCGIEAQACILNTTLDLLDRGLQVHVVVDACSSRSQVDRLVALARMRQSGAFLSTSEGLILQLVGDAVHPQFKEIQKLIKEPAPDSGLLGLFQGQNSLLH

[4] = biological target: T4, non-HDAC targets (e.g. BZW2, ISOC2, aldehyde dehydrogenases) (Homo sapiens, UniProt P16152); assay: as above; details: protein CBR1; selected HDACi off-targets
T4 construct: Kd^app CBR1; other: protein CBR1; selected HDACi off-targets
T4 sequence (P16152 1-277): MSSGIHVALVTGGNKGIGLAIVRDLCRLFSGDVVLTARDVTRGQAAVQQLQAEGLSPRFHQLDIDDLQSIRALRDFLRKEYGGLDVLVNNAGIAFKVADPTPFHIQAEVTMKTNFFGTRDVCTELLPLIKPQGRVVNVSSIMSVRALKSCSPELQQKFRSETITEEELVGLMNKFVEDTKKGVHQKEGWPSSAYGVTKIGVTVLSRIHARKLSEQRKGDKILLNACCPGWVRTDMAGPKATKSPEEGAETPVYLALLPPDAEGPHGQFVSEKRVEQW

[5] = biological target: T5, non-HDAC targets (e.g. BZW2, ISOC2, aldehyde dehydrogenases) (Homo sapiens, UniProt O94788); assay: as above; details: protein ALDH1A2; selected HDACi off-targets
T5 construct: endogenous in cells; host or cells: K562 whole cell extract
T5 sequence (O94788 1-518): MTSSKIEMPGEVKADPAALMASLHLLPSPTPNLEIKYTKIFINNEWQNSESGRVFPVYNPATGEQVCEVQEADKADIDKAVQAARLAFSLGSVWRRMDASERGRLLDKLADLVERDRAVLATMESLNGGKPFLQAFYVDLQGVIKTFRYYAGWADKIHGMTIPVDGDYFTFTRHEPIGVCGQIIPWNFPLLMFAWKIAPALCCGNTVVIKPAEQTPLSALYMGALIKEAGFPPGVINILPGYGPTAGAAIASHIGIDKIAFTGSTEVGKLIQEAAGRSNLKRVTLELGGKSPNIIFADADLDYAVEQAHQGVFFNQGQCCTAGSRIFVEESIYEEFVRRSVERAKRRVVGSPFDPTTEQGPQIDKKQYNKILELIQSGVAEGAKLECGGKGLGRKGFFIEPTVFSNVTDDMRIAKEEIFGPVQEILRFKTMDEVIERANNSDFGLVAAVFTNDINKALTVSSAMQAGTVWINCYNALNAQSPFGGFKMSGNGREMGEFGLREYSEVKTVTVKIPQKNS

MIER2 = assay: Chemoproteomic binding profiling, K562 cell extract, SAHA/ITF2357 probe matrix (Kd app), ELSA (ELM-SANT) domain protein; parameters: species or system human; details: ELSA (ELM-SANT) domain proteins
Sin3 complex = assay: Chemoproteomic binding profiling, K562 cell extract, SAHA/ITF2357 probe matrix (Kd app); parameters: species or system human
NuRD complex = assay: as above; parameters: species or system human
EHMT2 = assay: Chemoproteomic binding profiling, K562 cell extract, SAHA/ITF2357 probe matrix (Kd app), ELSA (ELM-SANT) domain proteins group; parameters: species or system human; details: protein EHMT2
MIER3 = assay: Chemoproteomic binding profiling, K562 cell extract, SAHA/ITF2357 probe matrix (Kd app), ELSA (ELM-SANT) domain protein; parameters: species or system human; details: ELSA (ELM-SANT) domain proteins
MIER1 = assay: as above; parameters: species or system human; details: ELSA (ELM-SANT) domain proteins
[6] = system: T6, MiDAC complex (HDAC1/2, DNTTIP1, CDYL, MIDEAS); assay: Chemoproteomic binding profiling, K562 cell extract, SAHA/ITF2357 probe matrix (Kd app); parameters: species or system human
T6 construct: Kd^app MIDEAS; other: protein MIDEAS; MiDAC complex; Kd^app DNTTIP1; other: protein DNTTIP1

CoREST complex = assay: as above; parameters: species or system human
RERE = assay: Chemoproteomic binding profiling, K562 cell extract, SAHA/ITF2357 probe matrix (Kd app), ELSA (ELM-SANT) domain protein; parameters: species or system human
HDAC1 = biological target: T7, HDAC1 (Homo sapiens, UniProt Q13547); assay: Chemoproteomic binding profiling, K562 cell extract, SAHA/ITF2357 probe matrix (Kd app)
T7 construct: used to probe endogenous HDACs in K562 whole cell extracts; endogenous in cells

[7] = system: acetylated histones H3 and H4; assay: Cell-based histone acetylation assay (immunofluorescence, western blotting); parameters: species or system human; details: K562 and HeLa cells
acetylated tubulin = assay: Cell-based tubulin acetylation assay (immunofluorescence, western blotting); parameters: species or system human; details: K562 and HeLa cells; immunofluorescence and western blotting

T7 sequence (Q13547 whole entry): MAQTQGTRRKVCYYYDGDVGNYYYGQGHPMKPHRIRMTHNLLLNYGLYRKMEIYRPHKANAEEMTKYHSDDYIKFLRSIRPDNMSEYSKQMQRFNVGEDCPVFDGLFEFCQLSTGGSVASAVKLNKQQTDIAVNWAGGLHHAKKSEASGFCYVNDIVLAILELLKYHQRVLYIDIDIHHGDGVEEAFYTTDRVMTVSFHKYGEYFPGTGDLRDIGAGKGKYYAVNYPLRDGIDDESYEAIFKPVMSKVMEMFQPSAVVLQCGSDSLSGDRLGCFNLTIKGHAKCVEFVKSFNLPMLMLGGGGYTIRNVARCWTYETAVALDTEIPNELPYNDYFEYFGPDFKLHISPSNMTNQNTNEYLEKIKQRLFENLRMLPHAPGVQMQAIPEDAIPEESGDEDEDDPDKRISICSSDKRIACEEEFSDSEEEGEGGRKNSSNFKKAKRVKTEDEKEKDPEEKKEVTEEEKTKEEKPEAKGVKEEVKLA

In the case of `COc1ccc(Cn2ccc3ccc(C(=O)NO)cc32)cc1` [PCI-34051], the Kd [1] is reported as 59.7 µM, the Kd [2] is reported as 5.04 µM and the Kd [3] is reported as greater than 59.7 µM. For the same compound, the Kd [4] was 12.8 µM, the Kd [5] was greater than 59.7 µM and the Kd (MIER2) was greater than 59.7 µM. It also gave a Kd (Sin3 complex; protein SAP30, read-out: Kd^app SAP30) greater than 59.7 µM, a Kd (Sin3 complex; protein SIN3A, read-out: Kd^app SIN3A) greater than 59.7 µM and a Kd (Sin3 complex; protein SIN3B, read-out: Kd^app SIN3B) greater than 59.7 µM. For the same compound, the Kd (NuRD complex; protein GATAD2A, NuRD complex, read-out: Kd^app GATAD2A) was greater than 59.7 µM, the Kd (NuRD complex; protein GATAD2B, NuRD complex, read-out: Kd^app GATAD2B) was greater than 59.7 µM and the Kd (NuRD complex; protein MBD2, NuRD complex, read-out: Kd^app MBD2) was greater than 59.7 µM. It also gave a Kd (NuRD complex; protein MBD3, NuRD complex, read-out: Kd^app MBD3) greater than 59.7 µM, a Kd (NuRD complex; protein MTA1, NuRD complex, read-out: Kd^app MTA1) greater than 59.7 µM and a Kd (NuRD complex; protein MTA2, NuRD complex, read-out: Kd^app MTA2) greater than 59.7 µM. It also gave a Kd (NuRD complex; protein MTA3, NuRD complex, read-out: Kd^app MTA3) greater than 59.7 µM, a Kd (EHMT2) greater than 59.7 µM and a Kd (MIER3) greater than 59.7 µM. The Kd (MIER1) was greater than 59.7 µM, the Kd ([6]; protein DNTTIP1, read-out: Kd^app DNTTIP1) was greater than 59.7 µM and the Kd ([6]; protein MIDEAS, read-out: Kd^app MIDEAS) was greater than 59.7 µM. For the same compound, the Kd (CoREST complex; protein GSE1, CoREST complex, read-out: Kd^app GSE1) was greater than 59.7 µM, the Kd (CoREST complex; protein HMG20A, CoREST complex, read-out: Kd^app HMG20A) was greater than 59.7 µM and the Kd (CoREST complex; protein HMG20B, CoREST complex, read-out: Kd^app HMG20B) was greater than 59.7 µM. For the same compound, the Kd (CoREST complex; protein PHF21A, CoREST complex, read-out: Kd^app PHF21A) was greater than 59.7 µM, the Kd (CoREST complex; protein RCOR1, CoREST complex, read-out: Kd^app RCOR1) was greater than 59.7 µM and the Kd (CoREST complex; protein RCOR2, CoREST complex, read-out: Kd^app RCOR2) was greater than 59.7 µM. For the same compound, the Kd (CoREST complex; protein RCOR3, CoREST complex, read-out: Kd^app RCOR3) was greater than 59.7 µM, the Kd (CoREST complex; protein ZMYM2, CoREST complex, read-out: Kd^app ZMYM2) was greater than 59.7 µM and the Kd (CoREST complex; protein ZMYM3, CoREST complex, read-out: Kd^app ZMYM3) was greater than 59.7 µM. It also gave a Kd (RERE; protein RERE, ELSA (ELM-SANT) domain proteins) greater than 59.7 µM.

`C/C=C1\NC(=O)[C@H]2CSSCC/C=C/[C@H](CC(=O)N[C@H](C(C)C)C(=O)N2)OC(=O)[C@H](C(C)C)NC1=O` [romidepsin] gave a Kd (HDAC1) of 0.01 µM.

Work on `CC(=O)Nc1ccc(C(=O)Nc2ccccc2N)cc1` [tacedinaline] yielded a Kd [1] greater than 85 µM, a Kd [2] greater than 85 µM and a Kd [3] greater than 85 µM. For the same compound, the Kd [4] was greater than 85 µM, the Kd [5] was greater than 85 µM and the Kd (MIER2) was 184 µM. The “histone acetylation (in words)” value [7] was “elicited staining of acetylated histones”, the “tubulin acetylation (in words)” value (acetylated tubulin) was “did not affect tubulin” and the Kd (NuRD complex; read-out: Kd^app CHD4) was greater than 85 µM. For the same compound, the Kd (NuRD complex; read-out: Kd^app GATAD2A) was 423 µM, the Kd (NuRD complex; read-out: Kd^app GATAD2B) was 306 µM and the Kd (NuRD complex; read-out: Kd^app MBD2) was greater than 85 µM. It also gave a Kd (NuRD complex; read-out: Kd^app MBD3) of 265 µM, a Kd (NuRD complex; read-out: Kd^app MTA1) of 152 µM and a Kd (NuRD complex; read-out: Kd^app MTA2) of 226 µM. It also gave a Kd (NuRD complex; read-out: Kd^app MTA3) of 263 µM, a Kd (EHMT2) greater than 85 µM and a Kd (MIER3) of 171 µM. For the same compound, the Kd (MIER1) was 195 µM, the Kd (CoREST complex; read-out: Kd^app GSE1) was 122 µM and the Kd (CoREST complex; read-out: Kd^app HMG20A) was 139 µM. It also gave a Kd (CoREST complex; read-out: Kd^app HMG20B) of 168 µM, a Kd (CoREST complex; read-out: Kd^app RCOR1) of 114 µM and a Kd (CoREST complex; read-out: Kd^app RCOR2) of 196 µM. It also gave a Kd (CoREST complex; read-out: Kd^app RCOR3) of 159 µM, a Kd (CoREST complex; read-out: Kd^app ZMYM2) greater than 85 µM and a Kd (CoREST complex; read-out: Kd^app ZMYM3) greater than 85 µM. For the same compound, the Kd (RERE) was greater than 85 µM.
